Results taken from patent US7252835B2, “Agent for preventing and/or treating sinusitis” (Ono Pharmaceutical Co., Ltd., priority 1998, dated 2007).
Where two headings read alike, the source gives them in different places.

What was measured:
[1] = system: Normal human paranasal sinus mucosa; test: Inhibitory effect on the reduction of ciliary movement in paranasal sinus mucosa induced by LTs; assay type: cell-based; conditions: pranlukast hydrate 1 μM, FIG. 1
Source text: Inhibitory Effect of Pranlukast Hydrate on the Reduction of Ciliary Movement in Paranasal Sinus Mucosa Induced by LTs
1) Culturing of Paranasal Sinus Mucosa
Normal human paranasal sinus mucosa obtained at the time of surgical operation of facial trauma or the like was used on the agreement of the patient. The collected paranasal sinus mucosa was thoroughly washed with a culture medium RPMI 1640 (Gibco Life Technologies), cut into 4 mm×4 mm species and then subjected to tissue culture in a culturing chamber of 35 mm×10 mm using RPMI 1640 containing 10% FCS (fetal calf serum). In order to remove mucus and cellular debris, the culture medium was exchanged every other day.
2) Preparation of Test Solutions […]
When a test solution was added to the mucosal tissue, culture medium in the chamber was removed and mucosal tissue was washed with RPMI 1640 and then the test solution (1 ml) was injected. As a control, the ciliary activity was measured in case of injecting only RPMI 1640 into the chamber. By defining the ciliary activity measured just before injection of each test solution (0 minute) as the reference value (100), the ciliary activity measured after injection of each test solution was expressed as percentage (%) of the reference value. […]

[2] = system: intractable sinusitis patients; test: Effect of pranlukast hydrate on intractable sinusitis (clinical, oral administration); assay type: in vivo, human; conditions: 450 mg/day oral
Experimental: Effect of Pranlukast Hydrate on Intractable Sinusitis
Pranlukast hydrate was orally administered to intractable sinusitis patients (34 persons, average age 54.4 years) at a daily dose of 450 mg (112.5 mg/capsule, 2 capsules per 1 time, twice a day (after every breakfast and supper), every day administration). On the 2 weeks, 4 weeks, 6 weeks and 8 weeks after the administration, 1) improving degree of the nasal mucosa swelling, 2) improving degree of the properties of nasal flow, 3) improving degree of the amount of nasal flow, 4) improving degree of the postnasal discharge, 5) improving degree of the nasal obstruction, 6) improving degree of the nasal flow (frequency of blowing nose) and 7) improving degree of the X-ray shadow of each patient were judged (however, parameters in respective weeks are not constant).

rats = conditions: both, rat, in vivo
Experimental: (§1) It was confirmed that the compound of the formula (I) or a salt and/or hydrate thereof has sufficiently low toxicity and is sufficiently safe for using it as a medicament. For example, as the acute toxicity of pranlukast hydrate, its minimum lethal dose was 2,000 mg/kg or more (oral or subcutaneous administration), or 30 mg/kg or more (intravenous injection) in mice and rats (both males and females).

mice = conditions: both, mouse, in vivo
Experimental: as §1

In the case of `O=C(Nc1cccc2c(=O)cc(-c3nnn[nH]3)oc12)c1ccc(OCCCCc2ccccc2)cc1` [pranlukast hydrate, 4-oxo-8-[4-(4-phenylbutoxy)benzoylamino]-2-(tetrazol-5-yl)4H-1-benzopyran·½ hydrate], the “inhibition of reduction of paranasal sinus mucosa ciliary activity induced by LTC4” value ([1]; LTC4 0.1 μM, ciliary activity after 6 hours) is reported as “has the activity to inhibit reduction of paranasal sinus mucosa ciliary activity”, the “inhibition of reduction of paranasal sinus mucosa ciliary activity induced by LTD4” value ([1]; LTD4 0.1 μM, ciliary activity after 4 hours) is reported as “has the activity to inhibit reduction of paranasal sinus mucosa ciliary activity” and the “Effective ratio, improving degree of the amount of nasal flow” value ([2]; on the 2nd week) is reported as 52%. For the same compound, the “Effective ratio, improving degree of the nasal flow (frequency of blowing nose)” value (shortened to “Effective ratio … (frequency of blowing nose)”) ([2]; on the 2nd week) was 34%, the “Effective ratio, improving degree of the nasal mucosa swelling” value ([2]; on the 2nd week) was 32% and the “Effective ratio, improving degree of the nasal obstruction” value ([2]; on the 2nd week) was 19%. For the same compound, the “Effective ratio, improving degree of the postnasal discharge” value ([2]; on the 2nd week) was 39%, the “Effective ratio, improving degree of the properties of nasal flow” value ([2]; on the 2nd week) was 33% and the “Effective ratio, improving degree of the amount of nasal flow” value ([2]; on the 4th week) was 55%. For the same compound, the “Effective ratio … (frequency of blowing nose)” value ([2]; on the 4th week) was 52%, the “Effective ratio, improving degree of the nasal mucosa swelling” value ([2]; on the 4th week) was 29% and the “Effective ratio, improving degree of the nasal obstruction” value ([2]; on the 4th week) was 21%. For the same compound, the “Effective ratio, improving degree of the postnasal discharge” value ([2]; on the 4th week) was 38%, the “Effective ratio, improving degree of the properties of nasal flow” value ([2]; on the 4th week) was 48% and the “Effective ratio, improving degree of the amount of nasal flow” value ([2]; on the 6th week) was 68%. For the same compound, the “Effective ratio … (frequency of blowing nose)” value ([2]; on the 6th week) was 65%, the “Effective ratio, improving degree of the nasal mucosa swelling” value ([2]; on the 6th week) was 43% and the “Effective ratio, improving degree of the nasal obstruction” value ([2]; on the 6th week) was 35%. The “Effective ratio, improving degree of the postnasal discharge” value ([2]; on the 6th week) was 39%, the “Effective ratio, improving degree of the properties of nasal flow” value ([2]; on the 6th week) was 52% and the “Effective ratio, improving degree of the X-ray shadow” value ([2]; on the 8th week) was 83%. For the same compound, the “Effective ratio, improving degree of the amount of nasal flow” value ([2]; on the 8th week) was 65%, the “Effective ratio … (frequency of blowing nose)” value ([2]; on the 8th week) was 60% and the “Effective ratio, improving degree of the nasal mucosa swelling” value ([2]; on the 8th week) was 40%. The “Effective ratio, improving degree of the nasal obstruction” value ([2]; on the 8th week) was 29%, the “Effective ratio, improving degree of the postnasal discharge” value ([2]; on the 8th week) was 62% and the “Effective ratio, improving degree of the properties of nasal flow” value ([2]; on the 8th week) was 53%. The “overall clinical effect on subjective symptoms and objective findings of intractable sinusitis” value ([2]; summary of Tables 1 to 7) was “has clinical effects on sinusitis”, the minimum lethal dose (rats; iv) was at least 30 mg/kg and the minimum lethal dose (rats; po) was ≥ 2,000 mg/kg. For the same compound, the minimum lethal dose (rats; sc) was ≥ 2,000 mg/kg, the minimum lethal dose (mice; iv) was at least 30 mg/kg and the minimum lethal dose (mice; po) was ≥ 2,000 mg/kg. The minimum lethal dose (mice; sc) was ≥ 2,000 mg/kg.
